The target of the experiment is mTOR/GbL/Raptor (mTORC1) (Homo sapiens, UniProt P42345). The experiment is described as follows: mTOR/GbL/Raptor (mTORC1) ELISA assay. It counts as biochemical. To be noted: phosphorylation of 4E-BP1; 0.2 nM mTORC1, 10 μM ATP, 50 nM NHis-tagged 4E-BP1. As to the method:
mTOR/GbL/Raptor (mTORC1) ELISA Assay
The measurement of mTORC1 enzyme activity was performed in an ELISA assay format following the phosphorylation of 4E-BP1 protein. All experiments were performed in the 384-well format. Generally, 0.5 μL DMSO containing varying concentrations of the test compound was mixed with 15 μL enzyme solution. Kinase reactions were initiated with the addition of 15 μL of substrates-containing solution. The assay conditions were as follows; 0.2 nM mTORC1, 10 μM ATP and 50 nM NHis-tagged 4E-BP1 in 20 mM Hepes, pH 7.2, 1 mM DTT, 50 mM NaCl, 10 mM MnCl2, 0.02 mg/mL BSA, 0.01% CHAPS, 50 mM β-glycerophosphate. Following an incubation of 120 minutes at ambient temperature, 20 μL of the reaction volume was transferred to a Ni-Chelate-coated 384-well plate. The binding step of the 4E-BP1 protein proceeded for 60 minutes, followed by washing 4 times each with 50 μL of Tris-buffered saline solution (TBS). Anti-phospho-4E-BP1 rabbit-IgG (20 μL, 1:5000) in 5% BSA-TBST (0.2% Tween-20 in TBS) was added and further incubated for 60 minutes. Incubation with a secondary HRP-tagged anti-IgG was similarly performed after washing off the primary antibody (4 washes of 50 μL). Following the final wash step with TBST, 20 μL of SuperSignal ELISA Femto (Pierce Biotechnology) was added and the luminescence measured using an EnVision plate reader.
On the technique in general: An ELISA detects its analyte on a solid surface through an enzyme-linked reagent.

Bounds are passed on as bounds.

As usually defined, the IC50 is the concentration that gives 50% inhibition.

The compound `COCCOc1cc(-c2ccc3c(c2)CN(c2nc(CN(C)C)nc4c2CC(C)(C)CC4)CCO3)ccc1OC` [Compound 7, 1-(6,6-dimethyl-4-{7-[4-(methyloxy)-3-{[2-(methyloxy)ethyl]oxy}phenyl]-2,3-dihydro-1,4-benzoxazepin-4(5H)-yl}-5,6,7,8-tetrahydroquinazolin-2-yl)-N,N-dimethylmethanamine] yielded a 50% inhibitory concentration (IC50) of 100 to 500 nM.
As for `Cc1nc(N)nc(N2CCOc3ccc(-c4ccc5[nH]cnc5c4)cc3C2)c1C(C)C` [Compound 40, 4-[7-(1H-benzimidazol-5-yl)-2,3-dihydro-1,4-benzoxazepin-4(5H)-yl]-6-methyl-5-(1-methylethyl)pyrimidin-2-amine], the figure is at most 100 nM.
As for `COc1ccc(-c2ccc3c(c2)CN(c2nc(CN(C)C)nc(C)c2C(C)C)CCO3)cc1NS(C)(=O)=O` [Compound 10], the figure is 100 to 500 nM.
Turning to `Cc1nc2cc(-c3ccc4c(c3)CN(c3nc(N)nc(C)c3C(C)C)CCO4)ccc2[nH]1` [Compound 41, 4-methyl-6-[7-(2-methyl-1H-benzimidazol-5-yl)-2,3-dihydro-1,4-benzoxazepin-4(5H)-yl]-5-(1-methylethyl)pyrimidin-2-amine], the IC50 was at most 100 nM.
As for `COc1ccc2c(N3CCOc4ccc(-c5cnc6[nH]cnc6c5)cc4C3)nc(CN(C)C)nc2c1` [Compound 49, 1-{4-[7-(3H-imidazo[4,5-b]pyridin-6-yl)-2,3-dihydro-1,4-benzoxazepin-4(5H)-yl]-7-(methyloxy)quinazolin-2-yl}-N,N-dimethylmethanamine], the figure is 500 to 2500 nM; as for `Cc1nc2ncc(-c3ccc4c(c3)CN(c3nc(N)nc5c3CC(C)(C)CC5)CCO4)cc2[nH]1` [Compound 44, 6,6-dimethyl-4-[7-(2-methyl-1H-imidazo[4,5-b]pyridin-6-yl)-2,3-dihydro-1,4-benzoxazepin-4(5H)-yl]-5,6,7,8-tetrahydroquinazolin-2-amine], at most 100 nM; as for `Cc1nc2cc(-c3ccc4c(c3)CN(c3nc(CN(C)C)nc(C)c3CCCF)CCO4)ccc2[nH]1` [Compound 22, 1-{5-(3-fluoropropyl)-4-methyl-6-[7-(2-methyl-1H-benzimidazol-5-yl)-2,3-dihydro-1,4-benzoxazepin-4(5H)-yl]pyrimidin-2-yl}-N,N-dimethylmethanamine], 500 to 2500 nM.
As for `Cc1nc2ccc(-c3ccc4c(c3)CN(c3nc(CN(C)C)nc(C)c3C)CCO4)cc2[nH]1` [Compound 2, I-{4,5-dimethyl-6-[7-(2-methyl-1H-benzimidazol-6-yl)-2,3-dihydro-1,4-benzoxazepin-4(5H)-yl]pyrimidin-2-yl}-N,N-dimethylmethanamine], the figure is 500 to 2500 nM; as for `Cc1nc2cc(-c3ccc4c(c3)CN(c3nc(CN(C)C)nc(C)c3CC(C)C)CCO4)ccc2[nH]1` [Compound 23, N,N-dimethyl-1-{4-methyl-6-[7-(2-methyl-1H-benzimidazol-5-yl)-2,3-dihydro-1,4-benzoxazepin-4(5H)-yl]-5-(2-methylpropyl)pyrimidin-2-yl}methanamine], 100 to 500 nM; as for `COc1ccc(-c2ccc3c(c2)CN(c2nc(CN(C)C)nc4c2CC(C)(C)CC4)CCO3)cc1C(C)=O` [Compound 18, 1-[5-(4-{2-[(dimethylamino)methyl]-6,6-dimethyl-5,6,7,8-tetrahydroquinazolin-4-yl}-2,3,4,5-tetrahydro-1,4-benzoxazepin-7-yl)-2-(methyloxy)phenyl]ethanone], 100 to 500 nM.
As for `Cc1nc2cc(-c3ccc4c(c3)CN(c3cc(N)ncc3C#N)CCO4)ccc2[nH]1` [Compound 28, 6-amino-4-[7-(2-methyl-1H-benzimidazol-5-yl)-2,3-dihydro-1,4-benzoxazepin-4(5H)-yl]pyridine-3-carbonitrile], the figure is at most 100 nM; as for `C=CCc1c(C)nc(CN(C)C)nc1N1CCOc2ccc(-c3ccc4nc(C)[nH]c4c3)cc2C1` [Compound 33, N,N-dimethyl-1-{4-methyl-6-[7-(2-methyl-1H-benzimidazol-6-yl)-2,3-dihydro-1,4-benzoxazepin-4(5H)-yl]-5-prop-2-en-1-ylpyrimidin-2-yl}methanamine], at most 100 nM.
As for `Cc1nc2cc(-c3ccc4c(c3)CN(c3nc(NCCCN(C)C)nc(C)c3Cc3ccc(F)cc3)CCO4)ccc2[nH]1` [Compound 13, N′-{5-[(4-fluorophenyl)methyl]-4-methyl-6-[7-(2-methyl-1H-benzimidazol-5-yl)-2,3-dihydro-1,4-benzoxazepin-4(5H)-yl]pyrimidin-2-yl}-N,N-dimethylpropane-1,3-diamine], the IC50 is at most 100 nM.
As for `Cc1nc2cc(-c3ccc4c(c3)CN(c3nc(NC5CNC5)nc(C)c3Cc3ccc(F)cc3)CCO4)ccc2[nH]1` [Compound 14, N-azetidin-3-yl-5-[(4-fluorophenyl)methyl]-4-methyl-6-[7-(2-methyl-1H-benzimidazol-5-yl)-2,3-dihydro-1,4-benzoxazepin-4(5H)-yl]pyrimidin-2-amine], the figure is at most 100 nM.
As for `Cc1nc2ccc(-c3ccc4c(c3)CN(c3nc(CO)nc(C)c3C(C)C)CCO4)cc2[nH]1` [Compound 5, {4-methyl-6-[7-(2-methyl-1H-benzimidazol-5-yl)-2,3-dihydro-1,4-benzoxazepin-4(5H)-yl]-5-(1-methylethyl)pyrimidin-2-yl}methanol], the figure is at most 100 nM; as for `COc1ccc2c(N3CCOc4ccc(-c5ccc6[nH]c(C)nc6c5)cc4C3)nc(CN(C)C)nc2c1` [Compound 38, N,N-dimethyl-1-{4-[7-(2-methyl-1H-benzimidazol-5-yl)-2,3-dihydro-1,4-benzoxazepin-4(5H)-yl]-7-(methyloxy)quinazolin-2-yl}methanamine], 500 to 2500 nM.
Compound `CC1(C)CCc2nc(N)nc(N3CCOc4ccc(-c5cnc6[nH]cnc6c5)cc4C3)c2C1` [Compound 45, 4-[7-(3H-imidazo[4,5-b]pyridin-6-yl)-2,3-dihydro-1,4-benzoxazepin-4(5H)-yl]-6,6-dimethyl-5,6,7,8-tetrahydroquinazolin-2-amine] gave a half-inhibitory concentration (IC50) of at most 100 nM.
As for `CCCc1c(C)nc(CN(C)C)nc1N1CCOc2ccc(-c3ccc4nc(C)[nH]c4c3)cc2C1` [Compound 32, N,N-dimethyl-1-{4-methyl-6-[7-(2-methyl-1H-benzimidazol-6-yl)-2,3-dihydro-1,4-benzoxazepin-4(5H)-yl]-5-propylpyrimidin-2-yl}methanamine], the figure is 500 to 2500 nM; as for `Cc1nc2cc(-c3ccc4c(c3)CN(c3nc(C(C)N)nc5c3CC(C)(C)CC5)CCO4)ccc2[nH]1` (centres unmarked) [Compound 24, 1-{6,6-dimethyl-4-[7-(2-methyl-1H-benzimidazol-5-yl)-2,3-dihydro-1,4-benzoxazepin-4(5H)-yl]-5,6,7,8-tetrahydroquinazolin-2-yl}ethanamine], at most 100 nM.
As for `Cc1nc2cc(-c3ccc4c(c3)CN(c3nc(NC5CNC5)nc(C)c3C(C)C)CCO4)ccc2[nH]1` [Compound 15, N-azetidin-3-yl-4-methyl-6-[7-(2-methyl-1H-benzimidazol-5-yl)-2,3-dihydro-1,4-benzoxazepin-4(5H)-yl]-5-(1-methylethyl)pyrimidin-2-amine], the figure is at most 100 nM.
As for `CC1(C)CCc2nc(N)nc(N3CCOc4ccc(-c5ccc6[nH]cnc6c5)cc4C3)c2C1` [Compound 27, 4-[7-(1H-benzimidazol-5-yl)-2,3-dihydro-1,4-benzoxazepin-4(5H)-yl]-6,6-dimethyl-5,6,7,8-tetrahydroquinazolin-2-amine], the figure is at most 100 nM; as for `CCNc1nc2cc(-c3ccc4c(c3)CN(c3nc(N)nc(C)c3C(C)C)CCO4)ccc2[nH]1` [Compound 42, 5-{4-[2-amino-6-methyl-5-(1-methylethyl)pyrimidin-4-yl]-2,3,4,5-tetrahydro-1,4-benzoxazepin-7-yl}-N-ethyl-1H-benzimidazol-2-amine], at most 100 nM.
In turn, `Cc1nc2cc(-c3ccc4c(c3)CN(c3nc(CNCCF)nc(C)c3C(C)C)CCO4)ccc2[nH]1` [Compound 34, 2-fluoro-N-({4-methyl-6-[7-(2-methyl-1H-benzimidazol-5-yl)-2,3-dihydro-1,4-benzoxazepin-4(5H)-yl]-5-(1-methylethyl)pyrimidin-2-yl}methyl)ethanamine] gave a 50% inhibitory concentration (IC50) of at most 100 nM.
As for `Cc1nc2cc(-c3ccc4c(c3)CN(c3nc(NCCN(C)C)nc(C)c3Cc3ccc(F)cc3)CCO4)ccc2[nH]1` [Compound 11, N′-{5-[(4-fluorophenyl)methyl]-4-methyl-6-[7-(2-methyl-1H-benzimidazol-5-yl)-2,3-dihydro-1,4-benzoxazepin-4(5H)-yl]pyrimidin-2-yl}-N,N-dimethylethane-1,2-diamine], the figure is at most 100 nM.
Compound `COC(=O)Cc1c(C)nc(CN(C)C)nc1N1CCOc2ccc(-c3ccc4nc(C)[nH]c4c3)cc2C1` [Compound 6, methyl {2-[(dimethylamino)methyl]-4-methyl-6-[7-(2-methyl-1H-benzimidazol-5-yl)-2,3-dihydro-1,4-benzoxazepin-4(5H)-yl]pyrimidin-5-yl}acetate] yielded an IC50 of 500 to 2500 nM.
The compound `Cc1nc2cc(-c3ccc4c(c3)CN(c3nc(CF)nc5c3CC(C)(C)CC5)CCO4)ccc2[nH]1` [Compound 25, 4-[2-(fluoromethyl)-6,6-dimethyl-5,6,7,8-tetrahydroquinazolin-4-yl]-7-(2-methyl-1H-benzimidazol-5-yl)-2,3,4,5-tetrahydro-1,4-benzoxazepine] showed a concentration for half-maximal inhibition (IC50) of at most 100 nM.

Values taken from patent publication US20140073628A1, “BENZOXAZEPINES ASN INHIBITORS OF P13K/M TOR AND METHODS OF THEIR USE AND MANUFACTURE” (priority 2010, published 2014).
